In data set [1] the test system is cancer cells of the pancreas. In words: Laser irradiation to an extracted organ (excited fluorescent spectrum). The class given is in vivo, golden hamsters. To be noted: golden hamster, 5 mg i.v., after 24 hours. As to the method: Laser irradiation to an extracted organ (excited fluorescent spectrum):
To each of golden hamsters (five animals being grouped) transplaned with nitrosoamine-induced cancer cells of the pancreas, DTPA-10EG PPB-Me (5 mg) diluted with 0.1M citrate buffer (1 ml) was administered intravenously 14 to 21 days after the transplantation, and cancer cells and other organs were extracted. To each of the organs as extracted, N2 -pulsed laser (N2 337 nm, 2 ns 400-1000 nm) was irradiated, and excited fluorescent spectrum was measured after 24 hours. Taking the peak wavelength of NADH at 470 nm as the standard (i.e. 1), the wavelength at 600 to 900 nm was calculated. The results are shown in Table 1, from which it is understood that a porphyrin-related substance has a remarkably selective affinity to cancer cells.

Data set [2] has as its system inflammation (croton oil induced). In words: Distribution in inflammation-induced rats, inflammation to tissue. In kind it is in vivo, SD rats. To be noted: SD rat, 72 hour post-injection; mean and s.d. for 3 animals. As to the method: SD rats of about 200 grams in bodyweight received croton oil (0.1 ml) at the right hind leg subcutaneously to induce inflammation. […] The radioactivity level ratio between the inflamation and each tissue was determined.

For data set [3], the system named is inflammation (turpentine oil induced). To be noted: hamster, in vivo, 4320 min.
Procedure: (§1) Scintigraphy was obtained 72 and 96 hours after the administration by the use of a gamma-camera equipped with a medium energy high resolution type collimator.
Data set [4] deals with tumor. Particulars: hamster, in vivo, 4320 min.
Procedure: as §1

Regarding “2,4-Bis[1-(In-diethylenetriamine-tetraacetic acid-acetyloxyethane)oxyethyl] Ga-deuteroporphyrin [In--bisDTPA--EG Ga--DP]”, in data set [1], the “excited fluorescence at 600 to 900 nm relative to NADH peak at 470 nm (=1): Cancer” value came out at 0.40, the “excited fluorescence at 600 to 900 nm relative to NADH peak at 470 nm (=1): Kidney” value worked out at 0.10, the “excited fluorescence at 600 to 900 nm relative to NADH peak at 470 nm (=1): Liver” value came to 0.18 and the “excited fluorescence at 600 to 900 nm relative to NADH peak at 470 nm (=1): Serum” value is reported as 0.03.
In the case of “2,4-Bis[1-(In-diethylenetriamine-tetraacetic acid-acetyloxyethane)oxyethyl] In-deuteroporphyrin [In--bisDTPA--EG In--DP]”, in data set [1], the “excited fluorescence at 600 to 900 nm relative to NADH peak at 470 nm (=1): Cancer” value was determined as 0.00, the “excited fluorescence at 600 to 900 nm relative to NADH peak at 470 nm (=1): Kidney” value is reported as 0.05, the “excited fluorescence at 600 to 900 nm relative to NADH peak at 470 nm (=1): Liver” value turned out to be 0.25 and the “excited fluorescence at 600 to 900 nm relative to NADH peak at 470 nm (=1): Lung” value stood at 0.05. Besides, the “excited fluorescence at 600 to 900 nm relative to NADH peak at 470 nm (=1): Serum” value in data set [1] turned out to be 0.05.
Consider “2-[1-(In-Diethylenetriamine-tetraacetic acid-acetyloxyethane)oxyethyl]-4-[1-(2-hydroxyethyl)oxyethyl] Ga-deuteroporphyrin [In--monoDTPA--EG Ga--DP]”, for which, in data set [1], the “excited fluorescence at 600 to 900 nm relative to NADH peak at 470 nm (=1): Cancer” value turned out to be 0.50, the “excited fluorescence at 600 to 900 nm relative to NADH peak at 470 nm (=1): Kidney” value came out at 0.05, the “excited fluorescence at 600 to 900 nm relative to NADH peak at 470 nm (=1): Liver” value came to 0.03 and the “excited fluorescence at 600 to 900 nm relative to NADH peak at 470 nm (=1): Lung” value came to 0.14. Moreover, the “excited fluorescence at 600 to 900 nm relative to NADH peak at 470 nm (=1): Serum” value in data set [1] worked out at 0.02.
For “2-[1-(In-Diethylenetriamine-tetraacetic acid-acetyloxyethane)oxyethyl]-4-[1-(2-hydroxyethyl)oxyethyl] In-deuteroporphyrin [In--monoDTPA--EG In--DP]”, in data set [1], the “excited fluorescence at 600 to 900 nm relative to NADH peak at 470 nm (=1): Cancer” value came to 0.30, the “excited fluorescence at 600 to 900 nm relative to NADH peak at 470 nm (=1): Kidney” value was determined as 0.00, the “excited fluorescence at 600 to 900 nm relative to NADH peak at 470 nm (=1): Liver” value is 0.07 and the “excited fluorescence at 600 to 900 nm relative to NADH peak at 470 nm (=1): Lung” value amounted to 0.09. Also, the “excited fluorescence at 600 to 900 nm relative to NADH peak at 470 nm (=1): Serum” value in data set [1] is reported as 0.24.
The like results for “2-[1-(In-Diethylenetriamine-tetraacetic acid-acetyloxyethane)oxyethyl]-4-[1-(2-hydroxyethyl)oxyethyl] deuteroporphyrin dimethyl ester [In--DTPA--EG DP--Me]” were, in that order, 0.83, 0.15, 0.36, 0.09 and 0.71.
The like results for `C=Cc1c(C)c2cc3nc(c4c5[nH]c(cc6nc(cc1[nH]2)C(C)=C6CC)c(C)c5C(=O)C4C(=O)OC)C(CCC(=O)OCCOC(=O)CN(CCN(CCN(CC(=O)O)CC(=O)O)CC(=O)O)CC(=O)O)C3C` (stereo not shown) [DTPA--7EG PPB, Ethylene glycol mono-diethylenetriaminetetraacetic acid-acetate mono-7c-pheophorbate] were, in that order, 0.53, 0.32, 0.33, 0.30 and 0.31.
On the same counts, the results for `C=Cc1c(C)c2cc3nc(c4c5[nH]c(cc6nc(cc1[nH]2)C(C)=C6CC)c(C)c5C(=O)C4)C(CCC(=O)OCCOC(=O)CN(CCN(CCN(CC(=O)O)CC(=O)O)CC(=O)O)CC(=O)O)C3C` (stereo not shown) [DTPA--7EG pyroPPB, Ethylene glycol mono-diethylenetriaminetetraacetic acid-acetate mono-7c-pyropheophorbate] are 2.20, 0.25, 0.87, 1.23 and 0.39.
In the case of `C=Cc1c(C)c2cc3nc(c4c5[nH]c(cc6nc(cc1[nH]2)C(C)=C6CC)c(C)c5C(=O)C4C(=O)OCCOC(=O)CN(CCN(CCN(CC(=O)O)CC(=O)O)CC(=O)O)CC(=O)O)C(CCC(=O)O)C3C` (stereo not shown) [DTPA--10EG PPB, Ethylene glycol mono-diethylenetriamine-tetraacetic acid-acetate mono-10b-pheophorbate], in data set [1], the “excited fluorescence at 600 to 900 nm relative to NADH peak at 470 nm (=1): Cancer” value stood at 1.20, the “excited fluorescence at 600 to 900 nm relative to NADH peak at 470 nm (=1): Kidney” value came out at 0.43, the “excited fluorescence at 600 to 900 nm relative to NADH peak at 470 nm (=1): Liver” value turned out to be 0.77 and the “excited fluorescence at 600 to 900 nm relative to NADH peak at 470 nm (=1): Lung” value came to 0.45. In data set [1], the “excited fluorescence at 600 to 900 nm relative to NADH peak at 470 nm (=1): Serum” value is 0.52.
The like results for `C=Cc1c(C)c2cc3nc(c4c5[nH]c(cc6nc(cc1[nH]2)C(C)=C6CC)c(C)c5C(=O)C4C(=O)OCCOC(=O)CN(CCN(CCN(CC(=O)O)CC(=O)O)CC(=O)O)CC(=O)O)C(CCC(=O)OC)C3C` (stereo not shown) [DTPA--10EG PPB--Me, Ethylene glycol monodiethylenetriaminetetraacetic acid-acetate mono-10b-methylpheophorbate] were, in that order, 2.73, 0.37, 0.69, 0.47 and 0.53.
On to `O=C([O-])CC(O)(CC(=O)[O-])C(=O)[O-].[67Ga+3]` [Gallium (^67 Ga) citrate, gallium (^67 Ga) citrate], for which, in data set [2], the “Inflammation to tissue concentration ratio: Blood” value stood at 21.61 ± 6.47, the “Inflammation to tissue concentration ratio: Heart” value was 7.49 ± 3.37, the “Inflammation to tissue concentration ratio: Kidney” value is on record as 5.04 ± 6.35 and the “Inflammation to tissue concentration ratio: Liver” value was found to be 0.69 ± 0.17. In data set [2], the “Inflammation to tissue concentration ratio: Lung” value is 5.41 ± 0.71, the “Inflammation to tissue concentration ratio: Muscle” value stood at 12.81 ± 4.61 and the “Inflammation to tissue concentration ratio: Spleen” value is listed as 0.64 ± 0.11. In data set [3], the “Inflammation to tissue concentration ratio: Blood” value worked out at 17.55, the “Inflammation to tissue concentration ratio: Heart” value was 3.10, the “Inflammation to tissue concentration ratio: Kidney” value stood at 0.36 and the “Inflammation to tissue concentration ratio: Liver” value amounted to 0.33. Besides, in data set [3], the “Inflammation to tissue concentration ratio: Lung” value came out at 2.23, the “Inflammation to tissue concentration ratio: Muscle” value is reported as 25.15 and the “Inflammation to tissue concentration ratio: Spleen” value was 0.68. Besides, in data set [4], the “Tumor to tissue concentration ratio: Blood” value is recorded as 9.89, the “Tumor to tissue concentration ratio: Heart” value is on record as 1.73, the “Tumor to tissue concentration ratio: Kidney” value was 0.20 and the “Tumor to tissue concentration ratio: Liver” value was determined as 0.18. Besides, in data set [4], the “Tumor to tissue concentration ratio: Lung” value is 1.26, the “Tumor to tissue concentration ratio: Muscle” value came out at 14.20 and the “Tumor to tissue concentration ratio: Spleen” value is 0.39.
In the case of `CCC1=C(C)c2cc3[nH]c(cc4nc(c5c6[nH]c(cc1n2)c(C)c6C(=O)C5C(=O)OCCOC(=O)C1C(=O)c2c(C)c5cc6nc(cc7[nH]c(cc8nc(c1c2[nH]5)C(CCC(=O)O)C8C)c(C)c7C(C)I)C(C)=C6CC)C(CCC(=O)O)C4C)c(C)c3C(C)I` (stereo not shown) [I2 PPB Dimer, Bis[2-desethenyl-2-(1-iodoethyl)pheophobide]ethylene glycol diester], in data set [1], the “excited fluorescence at 600 to 900 nm relative to NADH peak at 470 nm (=1): Cancer” value came out at 0.82, the “excited fluorescence at 600 to 900 nm relative to NADH peak at 470 nm (=1): Kidney” value was found to be 0.07, the “excited fluorescence at 600 to 900 nm relative to NADH peak at 470 nm (=1): Liver” value came out at 0.31 and the “excited fluorescence at 600 to 900 nm relative to NADH peak at 470 nm (=1): Lung” value stood at 0.20. Moreover, the “excited fluorescence at 600 to 900 nm relative to NADH peak at 470 nm (=1): Serum” value in data set [1] came out at 1.58.

The record behind these values is US4849207A, “Porphyrin derivatives” (Nihon Medi-Physics Co., Ltd., priority 1985, dated 1989).
